US20240245634A1, “PCNA INHIBITORS AND EGFR INHIBITORS FOR CANCER TREATMENT” (City of Hope, priority 2021, published 2024)
Entries after “also recorded” stand apart in the source; their conditions may differ.

Tests used:
[1] = target: T1, EGFR (Homo sapiens, UniProt P00533); experiment: Immunofluorescence imaging of EGFR in MDA-MB-468 cells; assay type: cell-based; details: MDA-MB-468, serum starved, 30 minutes drug, then 15 minutes EGF
T1 construct: endogenous in cells; host or cells: MDA-MB-468
T1 sequence (P00533 25-1210): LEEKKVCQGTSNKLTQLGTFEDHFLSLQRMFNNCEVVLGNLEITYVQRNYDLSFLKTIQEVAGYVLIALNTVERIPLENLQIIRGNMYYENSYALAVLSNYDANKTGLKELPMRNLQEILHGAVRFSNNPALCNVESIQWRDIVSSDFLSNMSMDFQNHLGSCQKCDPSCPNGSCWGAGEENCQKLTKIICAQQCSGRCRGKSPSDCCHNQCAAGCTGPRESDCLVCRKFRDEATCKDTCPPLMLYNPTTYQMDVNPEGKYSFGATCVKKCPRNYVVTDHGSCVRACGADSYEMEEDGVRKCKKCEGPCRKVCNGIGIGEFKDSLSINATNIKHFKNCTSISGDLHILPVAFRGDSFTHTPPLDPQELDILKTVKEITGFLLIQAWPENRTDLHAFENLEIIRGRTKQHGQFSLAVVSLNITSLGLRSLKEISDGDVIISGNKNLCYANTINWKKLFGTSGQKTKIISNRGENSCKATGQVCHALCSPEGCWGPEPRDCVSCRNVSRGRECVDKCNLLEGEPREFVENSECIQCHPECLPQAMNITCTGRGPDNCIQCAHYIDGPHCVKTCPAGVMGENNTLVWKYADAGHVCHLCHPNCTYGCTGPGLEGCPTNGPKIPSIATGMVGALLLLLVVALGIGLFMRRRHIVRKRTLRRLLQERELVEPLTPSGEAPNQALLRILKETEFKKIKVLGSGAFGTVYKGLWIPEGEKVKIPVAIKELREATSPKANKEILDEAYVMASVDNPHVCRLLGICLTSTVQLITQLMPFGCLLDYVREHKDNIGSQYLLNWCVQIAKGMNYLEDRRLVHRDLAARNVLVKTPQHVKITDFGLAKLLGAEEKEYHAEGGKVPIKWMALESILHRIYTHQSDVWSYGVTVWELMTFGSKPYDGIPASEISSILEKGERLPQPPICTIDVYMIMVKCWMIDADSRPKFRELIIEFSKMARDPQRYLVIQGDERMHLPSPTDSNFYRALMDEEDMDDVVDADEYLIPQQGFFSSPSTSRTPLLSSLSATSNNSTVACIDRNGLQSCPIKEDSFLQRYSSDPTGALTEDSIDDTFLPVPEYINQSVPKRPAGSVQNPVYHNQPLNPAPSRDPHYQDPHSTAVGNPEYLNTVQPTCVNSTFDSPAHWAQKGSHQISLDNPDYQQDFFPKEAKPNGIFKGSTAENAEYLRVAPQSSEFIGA
Description: (§1) Serum starved cells were treated for 30 minutes with DMSO, AOH1996, Osi, or AOH1996 and Osi followed by 15 minutes of EGF stimulation.

[2] = system: CRC cell lines; experiment: IC50 on colorectal cancer cell lines of the NCI60 panel; assay type: cell-based; details: IC50 determined by the NCI Developmental Therapeutics Program
Description: FIGS. 7A-7B show EGFR targeted antibodies used in the treatment of colorectal cancer (CRC). […] CRC with KRAS and BRAF activating mutations are often difficult to treat but cell lines with mutant KRAS and BRAF are responsive to AOH1996. FIG. 7A: IC50 of CRC cell lines relative to the rest of the NCI60 cell lines. FIG. 7B: AOH1996 IC50 on CRC cell lines classified by presence and type of Ras-Raf-Mek-Erk pathway mutation. IC50s for the NCI60 cell lines was determined by the NCI Developmental Therapeutics Program. Mutation status of CRC cell lines was found in the Cellosaurus database.

[3] = system: tumors; experiment: In vivo tumor suppression and tolerability
[4] = system: cell lines (14837, 14838) engineered to express oncogenic KRAS; experiment: Dose response assay on cell lines with doxycycline-inducible mutant KRAS; assay type: cell-based; details: with doxycycline (KRAS expressed) versus without
Description: Some of those alterations are present in the NCI60 cell line and represented in the chart. Each circle represent cell lines with the resistance conferring genomic alteration listed on the x-axis. […] FIG. 5F: two cell lines (14837, 14838) engineered to express oncogenic KRAS in the presence of doxycycline (Dox) were treated with escalating doses of AOH1996 in a dose response assay.
(§2) Studies that explored acquisition of resistance to Osi have identified many genomic alterations that contribute to resistance. These alterations are present in some of the cell lines in the NCI60 cell line panel. The growth inhibitory effects of AOH1996 on the NCI60 panel has been measured through services offered by the NCI's Development Therapeutics Program.

[5] = system: NCI60 cell line panel; experiment: Growth inhibition on the NCI60 cell line panel (NCI Developmental Therapeutics Program); assay type: cell-based
Source text: as §2

[6] = target: T2, PCNA (Homo sapiens, UniProt P12004); experiment: Immunofluorescence imaging of PCNA in MDA-MB-468 cells; assay type: cell-based; details: MDA-MB-468, serum starved, 30 minutes drug, then 15 minutes EGF
T2 construct: endogenous in cells; host or cells: MDA-MB-468
T2 sequence (P12004 whole entry): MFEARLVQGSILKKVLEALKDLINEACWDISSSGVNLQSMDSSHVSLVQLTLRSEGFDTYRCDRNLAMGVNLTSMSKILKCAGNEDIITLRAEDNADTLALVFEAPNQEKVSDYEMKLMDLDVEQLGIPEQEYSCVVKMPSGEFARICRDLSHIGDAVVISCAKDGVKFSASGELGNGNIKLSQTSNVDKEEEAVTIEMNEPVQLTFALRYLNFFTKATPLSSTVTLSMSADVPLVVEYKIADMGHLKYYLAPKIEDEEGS
Description: as §1

| Structure (SMILES) | EGFR localization and signal [1] | response of CRC cell lines with mutant KRAS and BRAF [2] | sensitivity of CRC cell lines relative to the rest of the NCI60 cell lines [2] | dose with no discernable side effects [3] | route of administration [3] | effect on tumors in vivo ([3]; oral) | sensitivity with mutant KRAS expressed versus expression suppressed [4] | effect of genomic alterations conferring resistance to osimertinib on sensitivity to AOH1996 ([5]; NCI60 cell lines carrying the alterations) | sensitivity of BRAF and KRAS mutant cell lines to AOH1996 ([5]; NCI60 cell lines with BRAF V600E and activating KRAS mutations) | PCNA localization [6] |
| --- | --- | --- | --- | --- | --- | --- | --- | --- | --- | --- |
| COc1cccc(Oc2ccccc2NC(=O)CNC(=O)c2cccc3ccccc23)c1 [AOH1996] | accumulated EGFR at the cell membrane; also recorded: EGFR was localized to the cell membrane | responsive | particularly sensitive | more than 6 times its effective dose | orally administrable | effectively kills and suppresses tumors | sensitive to AOH1996 when mutant KRAS is expressed but not when expression was suppressed; also recorded: more sensitive | did not confer resistance | noticeable skew in distribution towards AOH1996 sensitivity; also recorded: greater sensitivity | lost punctate staining of PCNA in the nucleus; also recorded: Nuclear PCNA foci were absent |
| C=CC(=O)Nc1cc(Nc2nccc(-c3cn(C)c4ccccc34)n2)c(OC)cc1N(C)CCN(C)C [osimertinib, reference compound] |  |  |  |  |  |  |  |  |  | less apparent |
